# What was measured:
# Primary rabbit TSPC = assay: TSPC cell proliferation assay (fluorometric kit); assay type: cell-based; conditions: 10 μM peptide, low serum media, PDSP solvent (DMSO) set as 100%, mean±SE of three experiments
# Description: Primary rabbit TSPC were cultured to near-confluence in a 75T cell culture flask and then verified by immunostaining of a TSPC marker, nucleostemin (>98%; green color). Nuclei were stained with Hoechst 33258 (blue color) and visualized by an epifluorescence microscopy. The nucleostemine-positive TSPC were treated with 10 μM 29-mer or its variants for 24 h. The numbers of TSPC after 24-h expansion were detected with a cell proliferation assay kit (BioVision; catalog number: K307). The TSPC treated with PDSP solvent was set as 100%. Results are expressed as mean±SE of three independent experiments.
# (§1) Achilles tendons from New Zealand White rabbits (6-8 months old, 3.0-4.0 kg) were used in this study. Achilles tendons were washed two times with sterile phosphate-buffered saline (PBS) containing 50 μg/ml gentamicin. The tendon and tendon sheath were cut into small pieces (1-2 mm^3). Each 100 mg of fragment was then digested in a solution containing 3 mg/ml of type I collagenase and 4 mg/ml of dispase in 1 ml balance salt solution (BSS; Alcone) at 37° C. for 4 hours. The digested tissues were washed three times with PBS and collected by centrifugation (800 g for 10 min). The digested tissues were placed in tissue-culture plates (Falcon Labware; NJ, USA) and resuspended in high-glucose DMEM supplemented with 10% FBS and 50 μg/ml gentamycin, and maintained at 37° C. with 5% CO2. After 5 days, the medium was changed to remove the loosened tissue residues. Subsequently, tendon cells were incubated with 10% FBS medium for 2 days, and then cultured with a basal medium (2% FBS, 1% ITSE, 300 μg/ml L-glutamine, 1% antibiotic-antimicotic solutions) for further 10 days. Culture medium was changed every 3 days. For passage, tendon cells were harvested with 0.25% trypsin/EDTA, cell counting by haemocytometer, approximately 5×10^3 cells were seeded in each well of a 96-well cell culture plate or 2×10^5 cells were seeded in each well of a 6-well cell culture plate for 24 h. These expanded tendon cells were then treated with 10 μM 29-mer or its variants in fresh basal medium for further 24 h and subjected to cell proliferation assay and western blot analysis, respectively.
# Cell Proliferation Assay Kit (Fluorometric) was purchased from BioVision (Catalog #: K307) and used to evaluate cell proliferation according to the manufacturer's recommendations. The fluorescence was read at 480 nm for excitation and 538 nm for emission on a SPECTRAmax GEMINI XS fluorescence microplate spectrophotometer (Molecular Devices, Sunnyvale, Calif., USA).
# Rabbit TSPC isolation was described above. TSPC in low serum media were treated with 10 μM of one of the 29-mer variants for 24 h. Cell proliferation was examined by a cell proliferation kit based on a kit provided nuclear dye that specifically binds to nucleic acid in the cell and generates green fluorescence.
# [1] = test system: cultured tendon stem/progenitor cells (TSPC); conditions: peptide added in culture medium; previous study; cited from earlier work
# tendon rupture = conditions: rat model; previous study; cited from earlier work
# injured Achilles tendon = assay: Rat model of Achilles tendon injury, histology (H&E) and histopathological score; assay type: in vivo; conditions: 1 week postoperative; subcutaneous 150 μl alginate gel with 100 μM peptide
# Excerpt: Representative micrographs of the histopathological analysis by H&E staining. H&E-stained sections in higher magnification show uninjured tendon tissue with a relative scarcity of cells among the collagen fibers.
# (A) Representative H&E-stained longitudinal sections in higher magnification show the nuclei morphologies in uninjured tendon tissue and injured tendon treated with vehicle/alginate and 29-mer/alginate for 1 week. (B) Histopathological scores. Total scores were determining by fiber structure, fiber arrangement, rounding of the nuclei, resident cell density and inflammation (infiltration of inflammatory cells, neovascularization and fatty deposits). Data are reported as mean±SE. *P<0.0005 versus vehicle/alginate-treated tendon; ^#P<0.05 versus 29-mer/alginate-treated tendon.
# To investigate the effects of the 29-mer peptide on tendon healing, a rat model of Achilles tendon injury was established as reported by Orhan et al. (The effect of extracorporeal shock waves on a rat model of injury to tendon Achilles. A histological and biomechanical study. J. Bone Joint Surg. Br. 2004;.86(4):.613-618). Adult 10-week-old male Sprague-Dawley rats (initial body weight=312±11 g) were anesthetized by an intraperitoneal injection of xylazine (10 mg/kg). Then, the left tendo Achilles injury was created by full-thickness insertion of an 18-G needle through tendo Achilles 1 cm proximal to the calcaneum attachment site. This created a horizontal wound that was flanked by intact tendon tissue to prevent the retraction of severed ends. The skin incision was closed after the wound was irrigated with sterile saline. Treatments were applied to area around the tendon lesion by subcutaneous injection with 150 μl of alginate gel mixed with 100 μM 29-mer or DMSO vehicle (six rats per experimental condition).
# The tendon and surrounding soft tissue were dissected. Specimens were fixed in a 4% paraformaldehyde (PFA) solution and then were embedded in paraffin blocks. Sections (5 μm in thickness) were longitudinally cut and stained with hematoxylin and eosin (H&E) or used for immunohistochemical examination. 36 sections per tendon were carefully prepared so as to include the most severely degenerated area. Images were captured using a Nikon Eclipse 80i microscope (Nikon Corporation, Tokyo, Japan) equipped with a Leica DC 500 camera (Leica Microsystems, Wetzlar, Germany). Four sections of each sample containing injured tendon tissues were selected and evaluated by two blinded observers to assess the tendon morphology according to a modified semi-quantitative grading score from 0 to 3 proposed by Chen et al. (Tendon derived stem cells promote platelet-rich plasma healing in collagenase-induced rat Achilles tendinopathy. Cell Physiol. Biochem., 2014; 34(6): 2153-68). The scores analyzed the fiber structure (0-3), fiber arrangement (0-3), rounding of the nuclei (0-3), resident cell density (0-3), and inflammation (0-3; infiltration of inflammatory cells, neovascularization and fatty deposits). According to this grading system, a perfectly normal tendon obtained a score of 0, whereas a score of 15 was assigned to maximally abnormal tendons.
# To investigate the therapeutic effect of the 29-mer peptide on injured tendon, a rat model of Achilles tendon injury was established by full-thickness insertion of an 18-G needle through the tendon Achilles. We delivered the 29-mer in a 150 μl alginate gel, which releases 90% loaded 29-mer in 5 days as described in a previous protocol (Ho et al., PEDF-derived peptide promotes skeletal muscle regeneration through its mitogenic effect on muscle progenitor cells. Am J Physiol. Cell Physiol. 2015 Aug. 1; 309(3): C159-68).
# cyclin D1 = assay: Western blot analysis of cyclin D1 expression in TSPC; assay type: cell-based, rabbit; conditions: TSPC treated 24 h; compared with solvent-treated cells; normalized to β-actin
# Description: Primary rabbit TSPC were treated with 10NM 29-mer or its variants for 24 h. Representative blots (A) and densitometric analysis with the SD (B) from three independent experiments are shown. Cyclin D1 expression was normalized to ([…]. *P<0.01 vs. solvent-treated cells. ^#P<0.05 vs. 29-mer-treated cells.
# as §1
# Cell lysis, SDS-PAGE, and antibodies used for immunoblotting were performed as described (Ho et al., 15-deoxy-Delta(12,14)-prostaglandin J2 induces vascular endothelial cell apoptosis through the sequential activation of MAPKS and p53. J Biol. Chem., 2008; 283(44): 30273-30288). The band intensity in immunoblot was evaluated with a Model GS-700 imaging densitometer (Bio-Rad Laboratories, Hercules, Calif.) and analyzed using Labworks 4.0 software.
# However, the 29-mer effect on cyclin D1 protein induction was almost abolished by alanine/glycine replacement at residue S93, A96, Q98, 1103, 1104 and R106, respectively (1.3±0.1, 1.5±0.3, 1.3±0.1, 0.9±0.1, 1.3±0.2, and 1.0±0.3). […] The data also imply that the PDSP at positions Ser93, Ala96, Gln98, Ile103, Ile104, and Arg106 are important for sustaining the PDSP effect on induction of TSPC proliferation.
Substance,TSPC proliferation (numbers of TSPC after 24-h expansion) (Primary rabbit TSPC),induction of cultured TSPC proliferation [1],healing of tendon rupture (tendon rupture),histological appearance of treated tendon (H&E staining) (injured Achilles tendon),induction of the cyclin D1 protein (cyclin D1)
"A107G: 29-mer variant with single glycine alteration at residue 107 (SLGAEQRTESIIHRGLYYDLISSPDIHGT; UniProt P36955 93-121, looked up, variant A107G)",117±3.8%,–,–,–,–
"20-mer: PEDF-derived short peptide, Ser93-Leu112 (SLGAEQRTESIIHRALYYDL; UniProt P36955 93-112, looked up, fragment)",–,able to induce cultured tendon stem/progenitor cells (TSPC) proliferation,facilitated healing of tendon rupture,–,–
"24-mer: PEDF-derived short peptide, Ser93-Pro (SLGAEQRTESIIHRALYYDLISSP; UniProt P36955 93-116, looked up, fragment)",–,able to induce cultured tendon stem/progenitor cells (TSPC) proliferation,facilitated healing of tendon rupture,–,–
"1103A: 29-mer variant with single alanine replacement at isoleucine-103 (SLGAEQRTESAIHRALYYDLISSPDIHGT; UniProt P36955 93-121, looked up, variant I103A)",106±5.3%,–,–,"loss of fiber organization and accompanied a marked increase in inflammatory matrix, fatty deposits, and vascularity",0.9±0.1 fold
"A96G: 29-mer variant with single glycine alteration at alanine-96 (SLGGEQRTESIIHRALYYDLISSPDIHGT; UniProt P36955 93-121, looked up, variant A96G)",102±4.0%,–,–,"loss of fiber organization and accompanied a marked increase in inflammatory matrix, fatty deposits, and vascularity",1.5±0.3 fold
"P116A: 29-mer variant with single alanine alteration at residue 116 (SLGAEQRTESIIHRALYYDLISSADIHGT; UniProt P36955 93-121, looked up, variant P116A)",115±3.7%,–,–,–,–
"1104A: 29-mer variant with single alanine replacement at isoleucine-104 (SLGAEQRTESIAHRALYYDLISSPDIHGT; UniProt P36955 93-121, looked up, variant I104A)",112±1.7%,–,–,"loss of fiber organization and accompanied a marked increase in inflammatory matrix, fatty deposits, and vascularity",1.3±0.2 fold
"R99A: 29-mer variant with single alanine alteration at residue 99 (SLGAEQATESIIHRALYYDLISSPDIHGT; UniProt P36955 93-121, looked up, variant R99A)",116±7.0%,–,–,–,–
"R106A: 29-mer variant with single alanine replacement at arginine-106 (SLGAEQRTESIIHAALYYDLISSPDIHGT; UniProt P36955 93-121, looked up, variant R106A)",106±3.5%,–,–,"loss of fiber organization and accompanied a marked increase in inflammatory matrix, fatty deposits, and vascularity",1.0±0.3 fold
"Q98A: 29-mer variant with single alanine replacement at glutamine-98 (SLGAEARTESIIHRALYYDLISSPDIHGT; UniProt P36955 93-121, looked up, variant Q98A)",106±5.4%,–,–,"loss of fiber organization and accompanied a marked increase in inflammatory matrix, fatty deposits, and vascularity",1.3±0.1 fold

# Source: patent US20210244791A1, “APPLICATION OF PEDF-DERIVED SHORT PEPTIDES IN TENDON HEALING” (BRIM Biotechnology, Inc., priority 2018, published 2021)
